SMILES strings stand for the structures.

One may read the Ki as a dissociation constant, usually derived from enzyme kinetics or from competition with a known ligand. The low end stands for tighter binding, the high end for weaker binding.

The target in this assay is PIK3CG (human) (UniProt P48736). Put plainly: Inhibition of PIK3CG Kinase Activity.
PIK3CG (human), sequence (P48736 whole entry, looked up): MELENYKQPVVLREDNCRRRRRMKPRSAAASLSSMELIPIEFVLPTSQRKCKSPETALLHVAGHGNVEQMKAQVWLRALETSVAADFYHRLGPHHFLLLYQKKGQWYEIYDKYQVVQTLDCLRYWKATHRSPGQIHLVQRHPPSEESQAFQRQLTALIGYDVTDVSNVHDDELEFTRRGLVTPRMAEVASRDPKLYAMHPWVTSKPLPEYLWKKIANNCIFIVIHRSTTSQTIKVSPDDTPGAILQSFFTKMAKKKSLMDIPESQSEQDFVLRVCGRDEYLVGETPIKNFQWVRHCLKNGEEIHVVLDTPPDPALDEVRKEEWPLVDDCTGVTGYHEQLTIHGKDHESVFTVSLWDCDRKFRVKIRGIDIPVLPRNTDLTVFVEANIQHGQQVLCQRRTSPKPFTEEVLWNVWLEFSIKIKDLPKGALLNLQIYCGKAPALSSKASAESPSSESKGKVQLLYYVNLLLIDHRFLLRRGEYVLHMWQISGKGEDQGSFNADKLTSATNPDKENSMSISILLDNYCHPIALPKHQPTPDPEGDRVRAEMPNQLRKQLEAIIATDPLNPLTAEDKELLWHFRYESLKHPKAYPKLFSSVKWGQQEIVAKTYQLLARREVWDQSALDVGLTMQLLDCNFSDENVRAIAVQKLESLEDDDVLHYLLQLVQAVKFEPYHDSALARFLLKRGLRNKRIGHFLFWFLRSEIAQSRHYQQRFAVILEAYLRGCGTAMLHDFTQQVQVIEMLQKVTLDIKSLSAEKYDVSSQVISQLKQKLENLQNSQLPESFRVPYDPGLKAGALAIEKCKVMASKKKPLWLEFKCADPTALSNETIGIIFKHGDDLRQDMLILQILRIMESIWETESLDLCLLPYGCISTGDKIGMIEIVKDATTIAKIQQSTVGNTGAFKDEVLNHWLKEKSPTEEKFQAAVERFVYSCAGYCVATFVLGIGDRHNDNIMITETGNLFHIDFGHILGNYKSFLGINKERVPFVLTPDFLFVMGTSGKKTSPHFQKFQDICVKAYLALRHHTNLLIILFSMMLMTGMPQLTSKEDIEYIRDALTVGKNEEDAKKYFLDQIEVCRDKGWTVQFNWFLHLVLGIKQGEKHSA
Regarding `Cc1cc(-c2cnc(C)c(C(=O)N(C)C)c2)nc2c1C(=O)N(c1cnn(CC(F)(F)F)c1)C2(C)C`, the inhibition constant (Ki) is less than 100 nM.
For `COc1cc(-c2ccc3c(n2)CN(c2cnn(Cc4cscn4)c2)C3=O)cnc1OC` the value was less than 100 nM; for `COc1ccc(-c2ccc3c(n2)CN(c2cnn(CC#N)c2)C3=O)c(OC)n1`, less than 100 nM; for `COc1cc(-c2ccc3c(n2)CN(c2cnn(Cc4ccn(C)n4)c2)C3=O)cnc1OC`, less than 100 nM.
For `CCc1ncc(-c2cc(C)c3c(n2)CN(c2cnn(CC(F)(F)F)c2)C3=O)cc1OC` the value was less than 100 nM; for `CCC#CCn1cc(N2Cc3cc(-c4cnc(OC)c(OC)c4)ccc3C2=O)cn1`, less than 100 nM.
The value for `Cc1ccc(-c2cc(C)c3c(n2)CN(c2cnn(CC(F)(F)F)c2)C3=O)cc1O` was less than 100 nM; that for `COc1cc(-c2ccc3c(n2)[C@@H](C)N(c2cn[nH]c2)C3=O)cnc1OC` was less than 100 nM; that for `COCn1cc(N2Cc3nc(-c4cnc(OC)c(OC)c4)ccc3C2=O)cn1` was less than 100 nM.
On to `CC1c2nc(-c3cccc(OC(F)(F)F)c3)ccc2C(=O)N1c1cnn(CC(F)(F)F)c1` (stereo not given), for which the Ki was less than 100 nM.
The compound `COc1cc(OC)cc(-c2cc(C)c3c(n2)C(C)N(c2cnn(CC(F)(F)F)c2)C3=O)c1` (stereo not given) yielded a Ki of less than 100 nM.
The value for `COc1cc(-c2ccc3c(n2)C2(CCOCC2)N(c2cnn(CC(F)(F)F)c2)C3=O)cnc1OC` was less than 100 nM.
For `COc1cc(-c2ccc3c(n2)C(C)(C)N(c2cnn(CC(F)(F)F)c2)C3=O)cnc1OC` the value was less than 100 nM; for `COc1cc(-c2ccc3c(n2)CN(c2ccc(N4CCC(CO)CC4)nc2)C3=O)cnc1OC`, less than 100 nM; for `CCn1cc(N2Cc3nc(-c4cnc(OC)c(OC(C)C)c4)cc(C)c3C2=O)cn1`, less than 100 nM.
Compound `CCCOc1cc(-c2cc(C)c3c(n2)CN(c2ccn(CC)n2)C3=O)cnc1OC` displayed a Ki of less than 100 nM.
The value for `COc1cncc(-c2cc(C)c3c(n2)C(C)N(c2ccn(C)n2)C3=O)c1` (stereo not given) was less than 100 nM.
As to `CCn1ncc(N2Cc3nc(-c4cnc(OC)c(OC)c4)cc(C)c3C2=O)n1`, the Ki was less than 100 nM.
In turn, `COc1cc(-c2ccc3c(n2)CN(c2cnn(C(C)C#N)c2)C3=O)cnc1OC` (stereo not given) had a Ki of less than 100 nM.
For `COc1cc(N2Cc3nc(-c4cnc(OC)c(OC)c4)cc(C)c3C2=O)ccn1` the value was less than 100 nM; for `COc1cncc(-c2cc(C)c3c(n2)[C@@]2(CCOC2)N(c2cnn(CC(F)(F)F)c2)C3=O)c1`, less than 100 nM; for `COc1cc(-c2ccc3c(n2)[C@@H](C)N(c2ccn(CC(C)(C)F)n2)C3=O)cnc1OC`, less than 100 nM.
Compound `CCOc1cc(-c2cc(C)c3c(n2)C(OCCOC)N(c2cnn(CC(F)(F)F)c2)C3=O)cnc1OC` (stereo not given) yielded a Ki of less than 100 nM.
For `CCOc1cncc(-c2cc(C)c3c(n2)[C@@](C)(OC)N(c2cnn(CC(F)(F)F)c2)C3=O)c1` the value was less than 100 nM; for `Cc1cc(-c2cncc(OCC(F)F)c2)nc2c1C(=O)N(c1cnn(CC#N)c1)C2(C)C`, less than 100 nM; for `CC(=O)Nc1cncc(-c2cc(C)c3c(n2)C(C)(C)N(c2cnn(CC(F)(F)F)c2)C3=O)c1`, less than 100 nM.
As for `COc1ccc(-c2cc(C)c3c(c2)CN(c2cnn(CC#N)c2)C3=O)cc1OC`, the Ki is less than 100 nM.
For `COc1ncc(-c2cc(C)c3c(n2)CN(c2cnn(CC(F)(F)F)c2)C3=O)cc1CO` the value was less than 100 nM.
For `COc1cc(-c2ccc3c(n2)CN(c2cnn(CC4CC4)c2)C3=O)cnc1OC` the value was less than 100 nM; for `COc1cc(-c2cc(C)c3c(n2)CN(c2ccn(C(F)F)c(=O)c2)C3=O)cnc1OC`, less than 100 nM; for `COc1cc(-c2cc(C)c3c(n2)C(O)N(c2cnn(CC(F)(F)F)c2)C3=O)cnc1OC` (stereo not given), less than 100 nM.
`COc1cc(-c2ccc3c(n2)CN(c2cnn(C4CCCCC4O)c2)C3=O)cnc1OC` (stereo not given) displayed a Ki of 100 to 490 nM.
For `COc1cc(-c2cc(C)c3c(n2)CN(c2ccnc(OC(F)F)c2)C3=O)cnc1OC` the value was less than 100 nM.
Consider `CCOc1cncc(-c2cc(C)c3c(n2)[C@]2(CCOC2)N(c2cnn(CC(F)(F)F)c2)C3=O)c1`, for which the Ki was less than 100 nM.
`COc1cc(-c2ccc3c(n2)CN(c2ccc(N4CCN(CCO)CC4)nc2)C3=O)cnc1OC` yielded a Ki of less than 100 nM.
Compound `Cc1cc(-c2cncc(C(=O)N(C)C)c2)nc2c1C(=O)N(c1cnn(CC(F)(F)F)c1)C2(C)C` returned a Ki of 100 to 490 nM.
The value for `COC(=O)Cc1cncc(N2Cc3nc(-c4cnc(OC)c(OC)c4)ccc3C2=O)c1` was less than 100 nM.
For `COc1cncc(-c2cc(C)c3c(n2)C(C)N(c2cnccn2)C3=O)c1` (stereo not given) the value was 100 to 490 nM; for `Cc1cc(-c2cnc(C)c(OCC(F)F)c2)nc2c1C(=O)N(c1cnn(CC(F)F)c1)C2(C)C`, less than 100 nM; for `Cc1cc(-c2cncc(NS(=O)(=O)C(C)C)c2)nc2c1C(=O)N(c1cnn(CC(F)(F)F)c1)C2(C)C`, less than 100 nM.
In turn, `COc1cc(-c2ccc3c(n2)CN(c2ccc(=O)n(CC4COCCO4)c2)C3=O)cnc1OC` (stereo not given) yielded a Ki of less than 100 nM.
Take `COc1cc(-c2cc(C)c3c(n2)CN(c2cn[nH]c2)C3=O)cnc1OC`: the Ki is less than 100 nM.
The value for `CCC(O)c1ncc(N2Cc3nc(-c4cnc(OC)c(OC)c4)cc(C)c3C2=O)cn1` (stereo not given) was less than 100 nM.
For `COc1cc(-c2ccc3c(n2)CN(c2cnn(CC4CCCN4)c2)C3=O)cnc1OC` (stereo not given) the value was 100 to 490 nM; for `O=C1c2ccc(-c3cncc(OC(F)F)c3)nc2CN1c1cc[nH]n1`, 100 to 490 nM.
Turning to `CCn1ccc(N2Cc3nc(-c4cnc(OC)c(OCC5CC5)c4)cc(C)c3C2=O)n1`, the Ki is less than 100 nM.
The value for `COc1cncc(-c2cc(C)c3c(n2)C(C)(C)N(c2cnn(CC(F)(F)F)c2)C3=O)c1` was less than 100 nM.
In the case of `CCc1cncc(-c2cc(C)c3c(n2)C(C)(C)N(c2cnn(CC(F)(F)F)c2)C3=O)c1`, the Ki is less than 100 nM.
In the case of `COc1cc(-c2ccc3c(n2)CN(c2cccc(C(C)(C)C#N)n2)C3=O)cnc1OC`, the Ki is less than 100 nM.
With `COCCOCn1cc(N2C(=O)c3ccc(-c4cnc(OC)c(OC)c4)nc3[C@H]2C)cn1`, the Ki is less than 100 nM.
The value for `COc1cc(-c2ccc3c(n2)C(C)(C)N(c2cn[nH]c2)C3=O)cnc1OC` was less than 100 nM; that for `Cc1cc(-c2cncc(O)c2)nc2c1C(=O)N(c1cnn(CC(F)(F)F)c1)C2` was less than 100 nM.
Consider `COc1cc(-c2ccc3c(n2)CN(c2cncs2)C3=O)cnc1OC`, for which the Ki is less than 100 nM.
Regarding `CCn1cc(N2Cc3nc(-c4cnc(OC)c(OC(F)F)c4)cc(C)c3C2=O)cn1`, the Ki is less than 100 nM.
`Cc1cc(-c2cncc(S(C)(=O)=O)c2)nc2c1C(=O)N(c1cnn(CC(F)(F)F)c1)C2` came in with an inhibition constant (Ki) of less than 100 nM.
With `CCn1ccc(N2C(=O)c3c(C)cc(-c4cncc(OC)c4)nc3[C@@H]2C)n1`, the Ki is less than 100 nM.
For `COc1cc(-c2cc(C)c3c(n2)C(O)N(c2nc(C)cs2)C3=O)cnc1OC` (stereo not given) the value was less than 100 nM; for `COc1cc(-c2cc(C)c3c(n2)CN(c2cnn(CC(F)(F)F)c2)C3=O)cc(OC)n1`, less than 100 nM.
On to `COc1cncc(-c2cc(C)c3c(n2)CN(c2ccn(C4COC4)n2)C3=O)c1`, for which the Ki was less than 100 nM.
The value for `Cc1cc(-c2cncc(OCC(F)(F)F)c2)nc2c1C(=O)N(c1cn(CC(F)(F)F)cn1)C2` was less than 100 nM; that for `COc1cc(-c2cc(C)c3c(n2)[C@@](C)(OC)N(c2cnn(CC(F)(F)F)c2)C3=O)cnc1OC` was less than 100 nM.
Regarding `COCCOc1ncc(-c2cc(C)c3c(n2)[C@H](C)N(c2ccn(C)n2)C3=O)cc1OC`, the Ki was less than 100 nM.
The value for `Cc1cc(-c2cnc(F)c(O)c2)nc2c1C(=O)N(c1cnn(CC(F)(F)F)c1)C2(C)C` was less than 100 nM.
The compound `COc1cncc(-c2cc(C)c3c(n2)C(C)(C)N(c2cnn(CC#N)c2)C3=O)c1` returned a Ki of less than 100 nM.
For `CC[C@@H]1c2nc(-c3cnc(OC)c(OC)c3)ccc2C(=O)N1c1cnn(CC(F)(F)F)c1` the value was less than 100 nM.
For `Cc1cc(-c2cncc(OC(F)F)c2)nc2c1C(=O)N(c1cnn(C[C@H](C)O)c1)[C@H]2C` the value was less than 100 nM; for `COc1ncc(-c2cc(C)c3c(n2)C(C)(C)N(c2cnn(CC(F)(F)F)c2)C3=O)cc1C(=O)N[C@@H]1CCOC1`, less than 100 nM; for `COc1ncc(-c2cc(C)c3c(n2)CN(c2cnn(CC(F)(F)F)c2)C3=O)cc1F`, less than 100 nM.
`COc1cc(-c2cc(C)c3c(n2)C(OC(C)C)N(c2cnn(CC(F)(F)F)c2)C3=O)cnc1OC` (stereo not given) registered a Ki of less than 100 nM.
For `COc1ncc(-c2cc(C)c3c(n2)C(C)(C)N(c2cnn(CC(F)(F)F)c2)C3=O)cc1C(=O)NC[C@@H](O)CO`, the Ki is less than 100 nM.
The value for `COc1cc(-c2ccc3c(n2)C(Cc2ccccc2)N(c2cnn(CC(F)(F)F)c2)C3=O)cnc1OC` (stereo not given) was less than 100 nM; that for `Cc1cc(-c2cncc(CO)c2)nc2c1C(=O)N(c1cnn(CC(F)(F)F)c1)C2` was less than 100 nM.
`COc1cncc(-c2cc(C)c3c(n2)CN(c2ccn(CC(C)(C)F)n2)C3=O)c1` gave a Ki of less than 100 nM.
`CCn1ccc(N2Cc3nc(-c4cncc(OC)c4)cc(C)c3C2=O)n1` yielded a Ki of less than 100 nM.
For the compound `Cc1cc(-c2cncc(OCC(F)(F)F)c2)cc2c1C(=O)N(c1cnn(CC(F)(F)F)c1)C2`, the inhibitory constant (Ki) is less than 100 nM.
For `COc1cc(-c2cc(C)c3c(n2)CN(c2nc(C)cs2)C3=O)cnc1OC` the value was less than 100 nM; for `COc1cc(-c2ccc3c(n2)CN(c2cnn(Cc4ccccn4)c2)C3=O)cnc1OC`, less than 100 nM; for `COc1cc(-c2ccc3c(n2)CN(c2ccc(N4CCN(CCC#N)CC4)nc2)C3=O)cnc1OC`, less than 100 nM.
The value for `Cc1cc(-c2cccnc2NC(=O)C(C)(C)C)nc2c1C(=O)N(c1cnn(CC(F)(F)F)c1)C2` was less than 100 nM.
In the case of `COc1cc(-c2ccc3c(n2)[C@@H](C)N(c2cccc(C(C)(C)C#N)n2)C3=O)cnc1OC`, the Ki is less than 100 nM.
For `COc1cc(-c2ccc3c(n2)C(C)N(c2ccnc(CC#N)c2)C3=O)cnc1OC` (stereo not given) the value was less than 100 nM; for `COc1cc(-c2ccc3c(n2)CN(c2cnn(CCN4CCCCC4)c2)C3=O)cnc1OC`, 100 to 490 nM; for `COc1cncc(-c2cc(C)c3c(n2)C2(CCC2)N(c2cnn(CC(F)(F)F)c2)C3=O)c1`, less than 100 nM.
The value for `COc1cc(-c2ccc3c(n2)CN(c2cn(CC(F)(F)F)cn2)C3=O)cnc1OC` was less than 100 nM; that for `Cc1cc(-c2cnc3ccccc3c2)nc2c1C(=O)N(c1cnn(CC(F)(F)F)c1)C2` was less than 100 nM.

(Values after the Kinase Knowledgebase extract (Sharma et al. 2016).)
